Measurements as given in PubChem BioAssay AID1996.
In brackets after ≈: the same amount, converted by molar mass.

Settings: buffer; pH 7.4; 200.0 µM

Compound	solubility kinetic
O=C(CSc1nc(-c2ccc(F)cc2)cs1)NCC1CCCO1 (centres undefined)	> 52.9 µg/mL
O=c1nc(SCc2c(F)cccc2Cl)nc(-c2ccccc2)[nH]1	4.1 µg/mL (≈ 11.8 µM)
Nc1ccccc1C(=O)NCC1(c2ccccc2)CCCC1	> 44.2 µg/mL
COc1cc(OC)c(OC)cc1CNCc1ccc2c(c1)OCO2	> 49.7 µg/mL
CSC(=Nc1ccccc1)Nc1ccccc1	6.4 µg/mL (≈ 26.4 µM)
O=Cc1ccc(OCC(=O)N2CCOCC2)cc1	> 37.4 µg/mL
CCn1c(/C=C2\C(=O)N(C(C)C)c3ccccc32)nc2ccccc2c1=O	22.2 µg/mL (≈ 61.8 µM)
O=C(O)c1ccn(COc2ccc(Br)cc2)n1	> 44.6 µg/mL
COc1cc(OC)cc(C(=O)Nc2cc(C)on2)c1	9.7 µg/mL (≈ 37 µM)
Cc1cc2nc(NCCCO)n(CC(=O)c3cc(C(C)(C)C)c(O)c(C(C)(C)C)c3)c2cc1C	0.5 µg/mL (≈ 1.07 µM)
O=C(OCC(=O)N1CCOCC1)c1ccc2ccccc2c1	> 44.9 µg/mL
COc1ccc(OCCN2C(=O)c3ccccc3C2=O)c([N+](=O)[O-])c1	1 µg/mL (≈ 2.92 µM)
Cc1cccc(N2CCN(Cc3nc(CC4CC4)no3)CC2)n1	41.1 µg/mL (≈ 131 µM)
CC(C)CC(C(=O)Nc1ccccc1)N1C(=O)C2C3C=CC(C3)C2C1=O (centres undefined)	> 52.9 µg/mL
Cc1ccc2[nH]c(=O)c(-c3noc(CC(C)C)n3)cc2c1	5.1 µg/mL (≈ 18 µM)
Cc1cc(C)cc(NC(=O)CN2CCN(C(=O)c3cccs3)CC2)c1	> 53.6 µg/mL
Cc1ccccc1NC(=S)N1CCC(NC(=O)c2ccco2)CC1	47.1 µg/mL (≈ 137 µM)
Cc1ccc(-n2c(C)nc3cc(Cl)ccc3c2=O)nc1	> 42.9 µg/mL
O=C(O)C1CC=CCC1C(=O)Nc1cccc([N+](=O)[O-])c1 (centres undefined)	> 43.5 µg/mL
Cc1[nH]c2ccc(C(=O)N3CCCCC3)cc2c1C	> 38.5 µg/mL
C=CCNC(=O)COC(=O)CCC(=O)c1cccs1	> 42.2 µg/mL
O=C(Nc1ccccc1)c1c(O)c2c(n(Cc3ccco3)c1=O)CCCC2	< 0.4 µg/mL
CCCCn1c(O)c(C(CC)=NCCCn2ccnc2)c(=O)[nH]c1=O	48.2 µg/mL (≈ 139 µM)
C=CCN(c1nc(C)cc(OC)n1)S(=O)(=O)c1ccccc1	19.4 µg/mL (≈ 60.7 µM)
CC1(C)CC(NC(=O)c2cccc(Cl)c2)CC(C)(C)N1	> 44.2 µg/mL

Compound	solubility kinetic
Oc1ccccc1C=Nc1cccc2ccccc12	9.4 µg/mL (≈ 38 µM)
CN(C)/C=C/C(=O)c1ccc(F)cc1F	> 31.7 µg/mL
CCn1c(=O)ccc2cc([N+](=O)[O-])ccc21	> 32.7 µg/mL
O=C1C(Cl)=C(NCc2cccnc2)C(=O)c2ccccc21	6.9 µg/mL (≈ 23.1 µM)
O=C(NC(=S)Nc1ncccn1)c1ccccc1Br	23.5 µg/mL (≈ 69.7 µM)
COc1ccc(C(=O)OCC(=O)N2CCCC2=O)c(OC)c1	40.3 µg/mL (≈ 131 µM)
CC(=O)N(CCCN(C)C)c1nc2ccc(C)cc2s1.Cl	> 49.2 µg/mL
O=C(OCc1nc2ccccc2s1)c1ccccc1O	4.8 µg/mL (≈ 16.8 µM)
O=C1CN(C(=O)c2ccccc2C(=O)O)c2ccccc2N1	> 44.4 µg/mL
O=C(Cc1cccs1)Nc1ccc(F)cc1F	30 µg/mL (≈ 118 µM)
CN1CCN(c2ccc(F)cc2N)CC1	> 31.4 µg/mL
COc1ccc(NC2=NCCCS2)cc1OC	> 37.8 µg/mL
O=C(CC(c1ccccc1)c1cc(Cl)ccc1O)NCCCN1CCOCC1 (centres undefined)	59.2 µg/mL (≈ 147 µM)
CN1CCN(CC(=O)NC(=O)NC2CCCCC2)CC1	> 42.4 µg/mL
CCCCOCCCNC(=O)N[C@H](C(=O)O)C(C)CC (some centres undefined)	> 43.3 µg/mL
Nc1ncnc2nc(SCC(=O)Nc3ccccc3F)[nH]c12	29.8 µg/mL (≈ 93.6 µM)
Oc1cccc(Nc2nc(-c3ccccc3)nc3ccccc23)c1	2.2 µg/mL (≈ 7.02 µM)
Cc1cc(C(=O)O)ccc1-n1c(C)cc(/C=C2\SC(=O)NC2=O)c1C	> 53.5 µg/mL
N#CCSc1nc2ccccc2o1	14.3 µg/mL (≈ 75.2 µM)
O=C(CNS(=O)(=O)c1ccc(F)c(Cl)c1)NCCc1ccccc1	5.1 µg/mL (≈ 13.8 µM)
COC(=O)c1cc(-c2cccs2)nc2ccccc12	9.6 µg/mL (≈ 35.6 µM)
O=S(=O)(NC1=NCCCCC1)c1ccccc1Cl	> 43 µg/mL
COc1cc(C(C)=O)ccc1Oc1ncccn1	> 36.6 µg/mL
CCC(=O)N1CCN=C1SCc1cc(C)ccc1C	35.6 µg/mL (≈ 129 µM)
